The results in this text go back to ChEMBL document CHEMBL2146404, “O-Hydroxyl- or o-amino benzylamine-tacrine hybrids: multifunctional biometals chelators, antioxidants, and inhibitors of cholinesterase activity and amyloid-β aggregation” (Bioorg Med Chem, 2012).

The structures appear in SMILES notation. The source made the active and inactive calls. The calls are words filed in the database; no cut-off is given here.

Test [1] has as its target Acetylcholinesterase (Electrophorus electricus, UniProt O42275).
Description: Inhibition of electric eel AChE using acetylthiocholine chloride as substrate preincubated for 15 mins by Ellman's method
The target of test [2] is Cholinesterase (Equus caballus, UniProt P81908).
Description: Inhibition of equine serum BuChE using butyrylthiocholine chloride as substrate preincubated for 15 mins by Ellman's method
For test [3], the target named is Acetylcholinesterase (Homo sapiens, UniProt P22303). The test can be described thus: Inhibition of human recombinant AChE using acetylthiocholine chloride as substrate preincubated for 15 mins by Ellman's method.
Test [4] can be described thus: Inhibition of […]-pretreated amyloid beta (1 to 42) self-aggregation at 20 uM after 48 hrs by thioflavin T based fluorometric assay.
A short description of test [5]: Metal chelating activity of the compound assessed as cupric ion complex formation at 40 uM after 30 mins by UV-vis spectrometry. The test is classed as functional.
The nature of test [6]: Metal chelating activity of the compound assessed as ferrous ion complex formation at 40 uM after 30 mins by UV-vis spectrometry. The format is functional.
A short description of test [7]: Metal chelating activity of the compound assessed as zinc ion complex formation at 40 uM after 30 mins by UV-vis spectrometry. The test is classed as functional.

Usually IC50 stands for the concentration needed to halve the response being measured. A word on the inhibition: it is how much of the control response was suppressed.

Acetylcholinesterase (Homo sapiens, UniProt P22303), sequence (P22303 whole entry): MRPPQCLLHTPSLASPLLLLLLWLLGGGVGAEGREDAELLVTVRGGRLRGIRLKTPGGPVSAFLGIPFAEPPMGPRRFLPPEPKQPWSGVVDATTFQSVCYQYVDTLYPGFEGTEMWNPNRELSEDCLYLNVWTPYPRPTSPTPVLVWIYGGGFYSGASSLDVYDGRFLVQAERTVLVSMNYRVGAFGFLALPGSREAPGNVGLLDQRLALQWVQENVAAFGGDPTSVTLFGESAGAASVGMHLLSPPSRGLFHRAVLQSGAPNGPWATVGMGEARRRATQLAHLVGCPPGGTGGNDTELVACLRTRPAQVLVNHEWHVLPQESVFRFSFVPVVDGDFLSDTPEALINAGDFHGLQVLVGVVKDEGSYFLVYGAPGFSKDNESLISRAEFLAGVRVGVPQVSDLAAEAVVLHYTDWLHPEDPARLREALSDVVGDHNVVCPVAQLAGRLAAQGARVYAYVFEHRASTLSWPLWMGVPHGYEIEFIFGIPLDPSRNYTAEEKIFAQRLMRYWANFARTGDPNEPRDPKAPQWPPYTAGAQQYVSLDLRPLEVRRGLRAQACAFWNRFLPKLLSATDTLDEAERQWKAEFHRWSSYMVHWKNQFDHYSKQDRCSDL
Cholinesterase, sequence (P81908 whole entry): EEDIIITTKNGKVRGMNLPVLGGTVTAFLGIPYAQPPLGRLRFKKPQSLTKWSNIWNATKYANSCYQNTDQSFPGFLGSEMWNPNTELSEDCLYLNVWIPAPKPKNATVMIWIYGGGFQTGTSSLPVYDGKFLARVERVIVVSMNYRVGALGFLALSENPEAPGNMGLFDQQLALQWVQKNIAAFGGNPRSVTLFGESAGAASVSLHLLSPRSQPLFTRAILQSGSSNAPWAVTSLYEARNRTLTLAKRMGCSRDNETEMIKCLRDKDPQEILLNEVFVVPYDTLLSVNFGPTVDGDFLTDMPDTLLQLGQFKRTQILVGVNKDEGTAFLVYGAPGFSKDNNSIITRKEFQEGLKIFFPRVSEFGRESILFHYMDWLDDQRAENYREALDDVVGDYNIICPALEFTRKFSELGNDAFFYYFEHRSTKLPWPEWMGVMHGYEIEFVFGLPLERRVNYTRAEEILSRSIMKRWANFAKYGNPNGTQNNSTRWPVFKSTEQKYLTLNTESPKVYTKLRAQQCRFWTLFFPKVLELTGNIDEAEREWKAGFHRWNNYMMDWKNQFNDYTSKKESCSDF
Acetylcholinesterase (Electrophorus electricus, UniProt O42275), sequence (O42275 whole entry): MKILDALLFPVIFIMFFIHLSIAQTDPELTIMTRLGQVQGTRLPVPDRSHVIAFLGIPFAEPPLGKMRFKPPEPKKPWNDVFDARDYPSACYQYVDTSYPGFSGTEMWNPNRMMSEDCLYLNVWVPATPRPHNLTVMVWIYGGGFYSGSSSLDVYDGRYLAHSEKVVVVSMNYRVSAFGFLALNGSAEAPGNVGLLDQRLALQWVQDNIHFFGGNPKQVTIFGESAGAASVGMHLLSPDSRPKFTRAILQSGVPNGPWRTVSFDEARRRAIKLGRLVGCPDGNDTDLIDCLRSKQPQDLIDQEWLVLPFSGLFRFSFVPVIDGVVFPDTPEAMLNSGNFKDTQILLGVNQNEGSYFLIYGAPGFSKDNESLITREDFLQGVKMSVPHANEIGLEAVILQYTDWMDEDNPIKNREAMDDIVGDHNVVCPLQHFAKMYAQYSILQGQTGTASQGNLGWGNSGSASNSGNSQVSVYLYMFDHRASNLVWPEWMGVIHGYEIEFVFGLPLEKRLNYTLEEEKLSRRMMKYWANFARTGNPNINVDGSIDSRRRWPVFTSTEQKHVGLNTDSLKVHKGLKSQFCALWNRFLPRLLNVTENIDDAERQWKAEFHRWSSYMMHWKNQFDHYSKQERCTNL

As for `Oc1ccccc1CNCCCNc1c2c(nc3ccccc13)CCCC2`, the IC50 in test [1] is 131 nM; in test [2] it was 46.1 nM.
Taken in the same sequence, the figures for `Oc1ccccc1CNCCCNc1c2c(nc3cc(Cl)ccc13)CCCC2` were 43.3 nM and 76.5 nM.
In the same order, the values of `Oc1ccccc1CNCCCCCCCCCNc1c2c(nc3ccccc13)CCCC2` are 7.52 nM and 8.2 nM.
Take `Oc1ccccc1CNCCCCCCCCNc1c2c(nc3ccccc13)CCCC2`: the IC50 is 6.17 nM in test [1] and 6.25 nM in test [2].
On to `Oc1ccccc1CNCCCCCCNc1c2c(nc3cc(Cl)ccc13)CCCC2`, for which the IC50 is 43 nM in test [1] and 11.1 nM in test [2].
As to `Oc1ccccc1CNCCCCNc1c2c(nc3ccccc13)CCCC2`, the IC50 is 252 nM in test [1] and 20.3 nM in test [2].
`Oc1ccccc1CNCCCCCCNc1c2c(nc3ccccc13)CCCC2`: the IC50 in test [1] was 25.1 nM; in test [2], 9.65 nM.
Take `Oc1ccccc1CNCCCCNc1c2c(nc3cc(Cl)ccc13)CCCC2`: the IC50 turned out to be 125 nM in test [1] and 28.1 nM in test [2].
On to `CN(C)c1ccccc1CNCCCCCCCNc1c2c(nc3ccccc13)CCCC2`, for which the IC50 in test [1] came out at 3.5 nM; in test [2], 2.92 nM; in test [3], 5.18 nM. The inhibition in test [4] was determined as 30.7%.
Take `Oc1ccccc1CNCCCCCCCNc1c2c(nc3cc(Cl)ccc13)CCCC2`: the IC50 in test [1] turned out to be 10.5 nM; in test [2] it was 17.8 nM.
Take `CN(C)c1ccccc1CNCCCCCCCCCNc1c2c(nc3ccccc13)CCCC2`: the values for the IC50 in test [1], in test [2] and in test [3] were 0.55 nM, 2.65 nM and 3.52 nM, respectively. In addition, the outcome in test [5], in test [6] and in test [7] was Active. The inhibition in test [4] stood at 39.4%.
Turning to `Oc1ccccc1CNCCNc1c2c(nc3ccccc13)CCCC2`, the IC50 in test [1] was 146 nM; in test [2], 10 nM.
Regarding `Oc1ccccc1CNCCCCCCCCCNc1c2c(nc3cc(Cl)ccc13)CCCC2`, the IC50 came out at 7.78 nM in test [1] and 23 nM in test [2].
`c1ccc(CNCCCCCCCCNc2c3c(nc4ccccc24)CCCC3)nc1`: the IC50 in test [1] came to 2.95 nM; in test [2] it was 2.99 nM.
Taken in the same sequence, the figures for `Oc1ccccc1CNCCNc1c2c(nc3cc(Cl)ccc13)CCCC2` were 22.5 nM and 9.97 nM.
Consider `CN(C)c1ccccc1CNCCCCCCCCNc1c2c(nc3ccccc13)CCCC2`, for which the values for the IC50 in test [1], in test [2] and in test [3] were 1.55 nM, 2.11 nM and 4.04 nM, respectively. The inhibition in test [4] came out at 38.6%.
`Oc1ccccc1CNCCCCCCCNc1c2c(nc3ccccc13)CCCC2`: the results for the IC50 in test [1] and in test [2] were 9.55 nM and 5.84 nM, respectively.
As for `Oc1ccccc1CNCCCCCCCCNc1c2c(nc3cc(Cl)ccc13)CCCC2`, the IC50 in test [1] came out at 6.77 nM; in test [2], 18.5 nM. The inhibition in test [4] worked out at 25.8%.
Regarding `CCN(CC)c1ccccc1CNCCCCCCCCNc1c2c(nc3ccccc13)CCCC2`, the IC50 turned out to be 1.36 nM in test [1] and 2.82 nM in test [2]. Also, the inhibition in test [4] is 40.1%.
